Data: patent US10137122B2, “Kinase inhibitors and methods of use thereof” (priority 2012, dated 2018)
“Also recorded” adds a separate entry of the source. Read-outs that look alike come from different tables or passages of the source. Values belong to the molecule of their own block, whether it stands above or below them.

Key:
[1] = test system: phospho-Tau (Ser199) in SH-SY5Y cells; assay: Tau phosphorylation assay (phospho-Tau Ser199 ELISA); format: cell-based, human; settings: read-out: p-Tau Inhibition ELISA EC50 SH-SY5Y
Procedure: Tau Phosphorylation and Total Tau Assay
SH-SY5Y cells were maintained in DMEM supplemented with 10% heat-inactivated FBS and 1% penicillin-streptomycin (Invitrogen) unless otherwise stated. ELISA kits for phospho-Tau (Ser199) and total Tau detection were purchased from Invitrogen (KHB0041, and KHB7041 respectively). Briefly, SH-SY5Y cells were seeded at 50,000 cells/200 μL/well in 96 well plates and after overnight incubation, treated with various doses of chemical compounds at 0.2 μL/well. The next day cells were washed with PBS twice before being lysed in 100 μL Lysis buffer/well. 50 μL of cell lysate of each sample was transferred to an ELISA vial coated with the capture antibody, and the mixture was incubated at room temperature for 2 hours, before the supernatant was aspired, and each vial washed four times. 100 μL of detection antibody was then added to each well, incubated for 1 hour, and then washed four times. […] Data were scaled using the positive and neutral controls and fitted for IC50.
A standard protocol using an immunoassay kit to quantify total Tau protein and phospho-Tau (Ser199) protein in SH-SY5Y human neuroblastoma cells was employed. Human Tau (Total) ELISA kit (#KHB0041) and human phosphor-Tau (Ser199) ELISA kit were purchased from Invitrogen (#KHB7041)
50,000 cells were seeded in 200 μl per well in cell culture media (250,000 cells/ml). Cells were incubated overnight @37° C. Cells were induced with appropriate doses of inhibitors and incubated for approximately 24 hrs @37° C. Cell lysates were harvested by washing cells once with cold PBS and adding 100 μl cold lysis buffer and pipette up and down vigorously. Lysate was transferred to 96 well PCR plate and centrifuged at 4,000 rpm for 20 minutes at 4° C.
Well strips were warmed and inserted into the frame. 100μ of standard diluent buffer were loaded into ZERO wells, and 100 ul of each standard concentrations (both total Tau and pTau) were loaded into wells in duplicate. Samples were loaded to each well that would be analyzed for total Tau, 85 μl standard diluent buffer and 15 μl cell lysate were added. To each well that will be analyzed for pTau (Ser199) 50 μl standard diluent buffer+50 μl cell lysate were added. Plates were tapped gently on the side to mix. Certain wells were left empty for chromogen blank. Plates were covered and incubated for 2 hours at room temperature. Wells were aspirated 4 times (400 μl diluted wash buffer, left for 30 seconds, aspirated all wells; alternatively used automated plate washer and programmed in a 30 second hold between each cycle). 100 μl of detection antibody solution were added to each well except chromogen blanks. Anti-total Tau was added to wells being analyzed for total Tau, anti-pTau (Ser199) was added to wells being analyzed for pTau (Ser199), and plates were tapped gently on the side to mix. Plates were covered and incubated for 1 hour at room temperature, then wells were aspirated and washed 4 times as described above. 100 μl of anti-rabbit IgG HRP working solution (prepared ahead) were added to each well except chromogen blanks, and plates were covered and incubated for 30 minutes at room temperature, then wells were aspirated and washed 4 times as described above. 100 μl of stabilized chromogen were added to each well (the liquid turned blue). Plates were incubates for 30 minutes at room temperature in the dark, then 100 μl of stop solution were added to each well, and plates were tapped gently on the side to mix. Absorbance of each well was read at 450 nm (within 2 hours of adding stop solution).

[2] = test system: β-catenin nuclear translocation in U2-OS cells; assay: β-Catenin nuclear localization assay; format: cell-based; settings: read-out: beta-Catenin translocation EC50
Procedure: β-Catenin Nuclear Localization Assay
U2-OS cells stably expressing two complimentary β-galactosidase fragments (one part on β-Catenin and the other constitutively expressed in the cell nucleus) were maintained in DMEM F12 supplemented with 10% FBS. When β-catenin translocates to the nucleus, the complimentary fragments form a complete β-galactosidase, the amount of which is then quantified by β-galactosidase activity (DiscoveRx). Cells were seeded in a 384-well CulturPlate (Perkin Elmer, Boston, Mass.) with 10,000 per well in 20 μL DMEM F12 containing 10% FCS, 100 U/ml penicillin and 100 μg/mL streptomycin. After overnight incubation at 37° C., cells were stimulated with 100 nL test compound/well and then returned to the incubator for 6 h. Cells were disrupted using 12 μL substrate-containing lysis buffer from the PathHunter Detection Kit in the formulation specified by the supplier (DiscoveRx). Plates were incubated in the dark for 1 h at room temperature before measurement of β-galactosidase activity (luminescence) on an EnVision plate reader (PerkinElmer, Waltham, Mass.).

CDK5/p25 = CDK5/p25 (Homo sapiens (Human), UniProt Q00535)
CDK5/p25, sequence (Q00535 whole entry, species assumed): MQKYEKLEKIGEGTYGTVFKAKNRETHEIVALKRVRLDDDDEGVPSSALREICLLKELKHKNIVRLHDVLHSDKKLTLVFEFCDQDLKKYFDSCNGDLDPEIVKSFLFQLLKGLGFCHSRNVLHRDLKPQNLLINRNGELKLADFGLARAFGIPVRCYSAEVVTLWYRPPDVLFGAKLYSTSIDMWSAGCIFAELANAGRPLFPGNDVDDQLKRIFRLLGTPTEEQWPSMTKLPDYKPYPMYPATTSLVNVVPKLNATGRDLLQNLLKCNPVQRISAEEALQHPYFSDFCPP
CDK5/p25, sequence (Q15078 99-307 partner, species assumed): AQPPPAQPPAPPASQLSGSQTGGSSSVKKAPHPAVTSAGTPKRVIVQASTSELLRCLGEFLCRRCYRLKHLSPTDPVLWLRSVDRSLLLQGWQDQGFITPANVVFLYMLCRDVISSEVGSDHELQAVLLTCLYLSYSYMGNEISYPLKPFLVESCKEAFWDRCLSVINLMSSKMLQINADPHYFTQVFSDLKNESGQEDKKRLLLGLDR
Procedure: Biochemical characterization of these synthesized compounds were assayed against GSK3β and CDK5/p25, with CDK5/p25 serving as a counter target of GSK3β selectivity. […] The effects of these compounds on survival of SH-SY5Y pathophysiology cells were also monitored.

[3] = test system: TCF/LEF reporter in HEK293-pBARL cells; assay: cells; settings: Homo sapiens
Procedure: (§1) HEK293-pBARL cells were derived from HEK293 cells and they stably expressed a firefly-luciferase reporter gene driven by a promoter containing 12 copies of TCF/LEF binding sequences. These cells were maintained in DMEM and supplemented with 10% FBS and 1% penicillin-streptomycin (Invitrogen). Reporter gene assays were conducted in anti-biotic free media. […] These cells also contained a renilla-luciferase reporter gene driven by the ubiquitous EF1α promoter as a control. HEK293-pBarl reporter cell lines were seeded into 384-well culture plates (Corning) at 6000 cells/well. 24 hours after plating, cells were treated overnight with relevant compounds and assayed using DualGlo assay kit (Promega). Luminescent intensities were read by EnVision (PerkinElmer, Waltham, Mass.). Firefly luciferase intensity is normalized by renilla luciferase intensity.
(§2) Cells were cultured in 384 well plates to appropriate density (40 μl total plating volume). 24 hours after plating, cells were treated with 100 nl compounds. 24 hours after incubation with compounds (48 hours after plating), assay reagents were prepared by mixing Luciferase Assay solution with Luciferase substrate and Stop & Glo solution to Stop & Glo substrate (extra reagents can be aliquoted and frozen for future use and are stable for at least one freeze/thaw cycle). […] The plate was spun down and 10 minutes were allowed for signal stabilization. Luciferase signal on the Perkin Elmer EnVision using the following parameters: Distance between plate & detector (mm)=0.2; Measurement time(s)=0.1; Glow (CT2) correction factor=0. Once the initial data is secure, a volume of Stop & Glo was added equal to each well equal to the volume of Luciferase reagent added above (If 10 μl Luciferase Reagent was added, 10 μl Stop & Glo was also added). The plate was spun down and 10 minutes were allowed for signal stabilization. The plate was read on the EnVision using the same parameters detailed above.

[4] = mouse plasma, 5 hours
[5] = test system: amphetamine-induced hyperactivity; assay: Amphetamine-induced hyperactivity (AIH) in vivo; settings: mice, systemic i.p., vs vehicle
[6] = Pharmacokinetics and brain distribution in mice; format: in vivo; settings: single i.p. dose 30 mg/kg, male C57BL/6 mice
AML cell lines = assay: AML cell morphology, May-Grunwald Giemsa staining; format: cell-based; settings: three days after treatment, vs vehicle
Procedure: Compound 70 Induces Morphological Changes in AML Cell Lines Consistent with Myeloid Differentiation
On day three post-chemical treatment, cytospin preparations were performed. Changes in cellular morphology were evaluated by May-Grunwald Giemsa staining (Sigma Aldrich). Images were acquired by light microscopy at 400× magnification.

HL-60 and U937 cells = assay: GE-HTS 32-gene myeloid differentiation signature; format: cell-based; settings: three days treatment
Procedure: HL-60 and U937 cells were treated for three days with compound 70 or vehicle. A 32-gene differentiation signature was quantified by the LMA/bead-based approach and a Weighted Summed Score (Differentiation Score) calculated for all genes was determined for each condition. Error bars denote the mean±SD of 8 replicates and statistical significance of the differences between these differentiation scores was derived using a one-way ANOVA with a Bonferroni correction.
Compound 70 Induces a Gene Expression Signature in AML Cell Lines Consistent with Myeloid Differentiation […]

GSK3α = GSK3α (Homo sapiens (Human), UniProt P49840)
GSK3α, sequence (P49840 whole entry): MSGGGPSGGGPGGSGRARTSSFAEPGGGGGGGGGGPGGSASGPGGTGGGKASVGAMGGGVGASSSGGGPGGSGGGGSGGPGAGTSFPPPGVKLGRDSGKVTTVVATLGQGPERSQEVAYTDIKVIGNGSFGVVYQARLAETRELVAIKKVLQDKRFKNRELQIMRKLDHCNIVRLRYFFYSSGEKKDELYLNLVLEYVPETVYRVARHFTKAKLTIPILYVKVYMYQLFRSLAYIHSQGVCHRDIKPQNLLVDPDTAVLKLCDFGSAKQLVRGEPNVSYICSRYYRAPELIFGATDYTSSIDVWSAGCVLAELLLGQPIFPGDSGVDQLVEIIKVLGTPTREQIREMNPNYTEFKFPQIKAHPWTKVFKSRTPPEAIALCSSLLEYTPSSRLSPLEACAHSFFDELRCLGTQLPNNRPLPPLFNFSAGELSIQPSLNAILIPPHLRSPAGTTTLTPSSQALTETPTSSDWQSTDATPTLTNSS
Procedure: GSK3β Microfluidic Mobility-Shift Assay
Reactions were terminated by the addition of 10 mM EDTA. Substrate and product were separated electrophoretically and fluorescence intensity of the substrate and product was determined by Labchip EZ Reader II (Caliper Life Sciences, MA). The kinase activity was measured as percent conversion. The reactions were performed in duplicate for each sample. […] The results were analyzed by Genedata Assay Analyzer. The percent inhibition was plotted against the compound concentration and the IC50 value was determined from the logistic dose-response curve fitting.

[7] = test system: TCF/LEF reporter in HEK293-pBARL cells; settings: read-out: TCF/LEF EC50
Procedure: as §1, §2

[8] = mouse, microsomes, 1 h
[9] = HEK293, read-out: TCF/LEF EC50 (μM)

EC50 ([1]; Homo sapiens, SH-SY5Y): 4.24 µM | EC50 ([2]; Homo sapiens, U2OS): 12 µM | ADP Glo Assay GSK3β vs CDK5 fold selectivity (CDK5/p25): 34X
Compound: Cc1[nH]nc2c1C(c1ccccc1C(F)(F)F)C1=C(CC(C)(C)CC1=O)N2 (racemic) [Compound 27, 3,7,7-trimethyl-4-(2-(trifluoromethyl)phenyl)-6,7,8,9-tetrahydro-2H-pyrazolo[3,4-b]quinolin-5(4H)-one]
EC50 [3, 9]: 9.59 µM

EC50 ([2]; Homo sapiens, U2OS): 10.8 µM | ADP Glo Assay GSK3β vs CDK5 fold selectivity (CDK5/p25): 244X
Compound: CC1(C)CC(=O)C2=C(C1)Nc1n[nH]c(C(F)(F)F)c1C2(C)c1ccccc1 (racemic) [Compound 68, 4,7,7-trimethyl-4-phenyl-3-(trifluoromethyl)-6,7,8,9-tetrahydro-2H-pyrazolo[3,4-b]quinolin-5(4H)-one]
EC50 [3, 9]: 7.77 µM

EC50 ([1]; Homo sapiens, SH-SY5Y): 6.35 µM | Plasma stability % remaining [4]: 99.0%
Compound: Cc1[nH]nc2c1C(C)(c1cccc(C#N)c1)C1=C(CC(C)(C)CC1=O)N2 (racemic) [Compound 95, 3-(1,6,6,9-tetramethyl-8-oxo-4,5,6,7,8,9-hexahydro-2H-pyrazolo[3,4-b]quinolin-9-yl)benzonitrile]

Plasma stability % remaining [4]: 96.6%
Compound: CC1(C)CC(=O)C2=C(C1)Nc1n[nH]cc1[C@]2(C)c1ccccc1 (racemic) [Compound 108]

EC50 ([1]; Homo sapiens, SH-SY5Y): 4.8 µM | Plasma stability % remaining [4]: 90.5%
Compound: CC1(C)CC(=O)C2=C(C1)Nc1n[nH]c(C3CC3)c1C2(C)c1ccccc1 (racemic) [Compound 113]

EC50 ([1]; Homo sapiens, SH-SY5Y): 0.819 µM | pharmacokinetic profile (systemic exposure and brain distribution) compared to CHIR99021 [6]: improved pharmacokinetic profile
Compound: CC1(C)CC(=O)C2=C(C1)Nc1n[nH]c(C(F)(F)F)c1C2(C)c1ccccc1 (single isomer, unassigned) [Compound 70, 4,7,7-trimethyl-4-phenyl-3-(trifluoromethyl)-6,7,8,9-tetrahydro-2H-pyrazolo[3,4-b]quinolin-5(4H)-one]
effect on amphetamine-induced hyperactivity, intraperitoneal injection [5]: attenuate amphetamine-induced hyperactivity | morphological evidence of AML differentiation (AML cell lines): induces morphological evidence of AML (acute myeloid leukemia) differentiation | morphological evidence of AML differentiation (AML cell lines; listed as compound 70): demonstrated cellular differentiation | AML differentiation by GE-HTS signature (HL-60 and U937 cells): induced a gene expression signature in AML cell lines consistent with myeloid differentiation; also recorded: induces AML (acute myeloid leukemia) differentiation by GE-HTS signature | EC50 [3, 9]: 1.86 µM

ADP Glo Assay GSK3β vs CDK5 fold selectivity (CDK5/p25): 14X
Compound: Cc1[nH]nc2c1C(c1ccccc1Br)C1=C(CC(C)(C)CC1=O)N2 (stereo not shown) [Compound 16]

Compound: Cc1ccccc1C1C2=C(CC(C)(C)CC2=O)Nc2n[nH]c(C)c21 (stereo not shown) [Compound 17, 3,7,7-trimethyl-4-(o-tolyl)-6,7,8,9-tetrahydro-2H-pyrazolo[3,4-b]quinolin-5(4H)-one]
EC50 ([2]; Homo sapiens, U2OS): > 50 µM | IC50 (GSK3α): < 0.1 µM | ADP Glo Assay GSK3β vs CDK5 fold selectivity (CDK5/p25): 14X | EC50 [3, 9]: > 25 µM

EC50 ([1]; Homo sapiens, SH-SY5Y): 2.85 µM | EC50 ([2]; Homo sapiens, U2OS): 10.9 µM
Compound: CSc1ccccc1C1C2=C(CC(C)(C)CC2=O)Nc2n[nH]c(C)c21 (stereo not shown) [Compound 25, 3,7,7-trimethyl-4-(2-(methylthio)phenyl)-6,7,8,9-tetrahydro-2H-pyrazolo[3,4-b]quinolin-5(4H)-one]
EC50 [3, 9]: 4.34 µM

EC50 ([1]; Homo sapiens, SH-SY5Y): 4.68 µM | EC50 ([2]; Homo sapiens, U2OS): 11.2 µM
Compound: Cc1[nH]nc2c1C(c1cccc(C(F)(F)F)c1)C1=C(CC(C)(C)CC1=O)N2 (stereo not shown) [Compound 30, 3,7,7-trimethyl-4-(3-(trifluoromethyl)phenyl)-6,7,8,9-tetrahydro-2H-pyrazolo[3,4-b]quinolin-5(4H)-one]
EC50 [3, 9]: 7.67 µM

EC50 ([1]; Homo sapiens, SH-SY5Y): 2.5 µM | EC50 ([2]; Homo sapiens, U2OS): 12 µM
Compound: Cc1[nH]nc2c1C(c1cccc(C#N)c1)C1=C(CC(C)(C)CC1=O)N2 (stereo not shown) [Compound 33, 3-(3,7,7-trimethyl-5-oxo-4,5,6,7,8,9-hexahydro-2H-pyrazolo[3,4-b]quinolin-4-yl)benzonitrile]
EC50 [3, 9]: 5.16 µM

Compound: Cc1[nH]nc2c1C(c1cccc3nonc13)C1=C(CC(C)(C)CC1=O)N2 (stereo not shown) [Compound 41, 4-(benzo[c][1,2,5]oxadiazol-4-yl)-3,7,7-trimethyl-6,7,8,9-tetrahydro-2H-pyrazolo[3,4-b]quinolin-5(4H)-one]
EC50 ([1]; Homo sapiens, SH-SY5Y): 2.27 µM | EC50 ([2]; Homo sapiens, U2OS): 11.8 µM | IC50 (GSK3α): < 0.1 µM | ADP Glo Assay GSK3β vs CDK5 fold selectivity (CDK5/p25): 51X | EC50 [3, 9]: 6.7 µM

Compound: Cc1[nH]nc2c1C(C)C1=C(CC(C)(C)CC1=O)N2 (stereo not shown) [Compound 42]
EC50 [2]: > 50 µM | ADP Glo Assay GSK3β vs CDK5 fold selectivity (CDK5/p25): 23X | EC50 [7]: > 25 µM

Compound: Cc1[nH]nc2c1C(C1CC1)C1=C(CC(C)(C)CC1=O)N2 (stereo not shown) [Compound 43]
EC50 [1]: > 30 µM | EC50 [2]: > 50 µM | EC50 [7]: > 25 µM

Compound: Cc1[nH]nc2c1C(C1CCCCC1)C1=C(CC(C)(C)CC1=O)N2 (stereo not shown) [Compound 44]
EC50 [2]: > 50 µM | EC50 [7]: > 25 µM

Compound: COc1ccccc1C1C2=C(CCC(C)(C)C2=O)Nc2n[nH]c(C)c21 (stereo not shown) [Compound 45]
EC50 [2]: > 50 µM | ADP Glo Assay GSK3β vs CDK5 fold selectivity (CDK5/p25): 20X | EC50 [7]: > 25 µM

Compound: COc1ccccc1C1C2=C(CCCC2=O)Nc2n[nH]c(C)c21 (stereo not shown) [Compound 46]
EC50 [2]: > 50 µM | ADP Glo Assay GSK3β vs CDK5 fold selectivity (CDK5/p25): 6X | EC50 [7]: > 25 µM

ADP Glo Assay GSK3β vs CDK5 fold selectivity (CDK5/p25): 34X
Compound: COc1ccccc1C1C2=C(CC(C)(C)CC2=O)Nc2n[nH]cc21 (stereo not shown) [Compound 47]

ADP Glo Assay GSK3β vs CDK5 fold selectivity (CDK5/p25): 35X
Compound: CCc1[nH]nc2c1C(c1ccccc1OC)C1=C(CC(C)(C)CC1=O)N2 (stereo not shown) [Compound 48]

Compound: COc1ccccc1C1C2=C(CC(C)(C)CC2=O)Nc2n[nH]c(C(C)C)c21 (stereo not shown) [Compound 49]
EC50 [2]: > 50 µM | ADP Glo Assay GSK3β vs CDK5 fold selectivity (CDK5/p25): 14X | EC50 [7]: > 25 µM

Compound: COc1ccccc1C1C2=C(CC(C)(C)CC2=O)Nc2n[nH]c(C(C)(C)C)c21 (stereo not shown) [Compound 50]
EC50 [2]: > 50 µM | EC50 [7]: > 25 µM

Compound: COc1ccccc1C1C2=C(CC(C)(C)CC2=O)Nc2n[nH]c(-c3ccccc3)c21 (stereo not shown) [Compound 51]
EC50 [2]: > 50 µM | EC50 [7]: > 25 µM

Compound: COc1ccccc1[C@H]1C2=C(CC(C)(C)CC2=O)Nc2n[nH]c(C(F)(F)F)c21 [Compound 55, (S)-4-(2-methoxyphenyl)-7,7-dimethyl-3-(trifluoromethyl)-6,7,8,9-tetrahydro-2H-pyrazolo[3,4-b]quinolin-5(4H)-one]
EC50 ([1]; Homo sapiens): > 30 µM | EC50 ([2]; Homo sapiens, U2OS): > 50 µM | EC50 ([3]; HEK293, read-out: TCF/LEF EC50 (μM), HEK293 reporter cells): > 25 µM

Compound: COc1ccccc1C1C2=C(CC3(CCCCC3)CC2=O)Nc2n[nH]c(C)c21 (stereo not shown) [Compound 56]
EC50 [2]: > 50 µM | EC50 [7]: > 25 µM

Compound: CC1(C)CC(=O)C2=C(C1)Nc1n[nH]c(C(F)(F)F)c1C2c1ccccc1F (stereo not shown) [Compound 58]
EC50 [7]: > 25 µM

Compound: CC1(C)CC(=O)C2=C(C1)Nc1n[nH]c(C(F)(F)F)c1C2c1cc(F)ccc1F (stereo not shown) [Compound 60]
EC50 [7]: > 25 µM

Compound: CC1(C)CC(=O)C2=C(C1)Nc1n[nH]c(C(F)(F)F)c1C2c1cc(F)ccc1OC(F)(F)F (stereo not shown) [Compound 61]
EC50 [7]: > 25 µM

Compound: CC1(C)CC(=O)C2=C(C1)Nc1n[nH]c(C(F)(F)F)c1C2c1cc(F)ccc1C(F)(F)F (stereo not shown) [Compound 64]
EC50 [7]: > 25 µM

Compound: CC1(C)CC(=O)C2=C(C1)Nc1n[nH]c(C(F)(F)F)c1C2c1ccc(F)cc1C(F)(F)F (stereo not shown) [Compound 65]
ADP Glo Assay GSK3β vs CDK5 fold selectivity (CDK5/p25): 130X | EC50 [7]: > 25 µM

Compound: Cc1[nH]nc2c1C(c1ccccc1)(C(F)(F)F)C1=C(CC(C)(C)CC1=O)N2 (stereo not shown) [Compound 83]
Microsomal stability 60 min [8]: 51.5%
